From ChEMBL document CHEMBL1201862, “PubChem BioAssay data set” (2004)
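Following 48 hours of exposure in 96-well plates, responses at five concentrations were used to interpolate endpoints linearly. GI50 = concentration required for 50% inhibition of growth.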 The source made the active and inactive calls. Rule as the data show it: active = GI50 up to about 1.1 µM and inactive = higher.

How the values were obtained:
Experiment in all cases: NCI anticancer screen, dose series, 48 h
SF-539 = tested on: SF-539
MOLT-4 = tested on: MOLT-4
ACHN = tested on: ACHN
SK-MEL-28 = tested on: SK-MEL-28
MDA-N = tested on: MDA-N
KM12 = tested on: KM12
IGROV-1 = tested on: IGROV-1
786-0 = tested on: 786-0
SN12C = tested on: SN12C
OVCAR-8 = tested on: OVCAR-8
MDA-MB-435 = tested on: MDA-MB-435
SF-268 = tested on: SF-268
Malme-3M = tested on: Malme-3M
RPMI-8226 = tested on: RPMI-8226
SK-MEL-2 = tested on: SK-MEL-2
TK-10 = tested on: TK-10
HT-29 = tested on: HT-29
HOP-92 = tested on: HOP-92

Measured: GI50

O=C(CSc1nc2nncc-2c(O)[nH]1)c1ccc(Cl)cc1
inactive: SF-539 > 100 µM | MOLT-4 > 100 µM | ACHN > 100 µM | SK-MEL-28 > 100 µM | MDA-N > 100 µM | KM12 > 100 µM | IGROV-1 > 100 µM | 786-0 > 100 µM | SN12C > 100 µM | OVCAR-8 > 100 µM | MDA-MB-435 > 100 µM | SF-268 > 100 µM | Malme-3M > 100 µM | RPMI-8226 > 100 µM | SK-MEL-2 75.3 µM | TK-10 > 100 µM | HT-29 > 100 µM

CC(=N/NC(=S)N1CCCCC1)/C(C)=N\NC(=S)N1CCCCC1
inactive: SF-539 2.35 µM | MOLT-4 2.13 µM | ACHN 1.55 µM | SK-MEL-28 2.08 µM | MDA-N 2.47 µM | KM12 1.82 µM | IGROV-1 1.58 µM | HOP-92 1.48 µM | 786-0 1.76 µM | SN12C 1.69 µM | OVCAR-8 2.12 µM | MDA-MB-435 1.87 µM | SF-268 1.67 µM | Malme-3M 2.08 µM | RPMI-8226 2.19 µM | SK-MEL-2 1.97 µM | TK-10 1.77 µM | HT-29 1.93 µM

COC(=O)CCC1(C)C2CCC1/C(=N/O)C2 (stereo not drawn)
inactive: MOLT-4 > 100 µM | ACHN > 100 µM | SK-MEL-28 > 100 µM | MDA-N > 100 µM | KM12 > 100 µM | IGROV-1 > 100 µM | 786-0 > 100 µM | SN12C > 100 µM | OVCAR-8 > 100 µM | MDA-MB-435 > 100 µM | SF-268 > 100 µM | Malme-3M > 100 µM | RPMI-8226 > 100 µM | SK-MEL-2 > 100 µM | TK-10 > 100 µM | HT-29 > 100 µM

CCCCCC(/C=N/NC(N)=S)C(O)(C(F)(F)F)C(F)(F)F (stereo not drawn)
inactive: SF-539 > 10 µM | MOLT-4 > 10 µM | ACHN > 10 µM | SK-MEL-28 > 10 µM | MDA-N > 10 µM | KM12 > 10 µM | IGROV-1 > 10 µM | HOP-92 > 10 µM | 786-0 > 10 µM | SN12C > 10 µM | OVCAR-8 > 10 µM | MDA-MB-435 > 10 µM | SF-268 > 10 µM | Malme-3M > 10 µM | SK-MEL-2 > 10 µM | TK-10 > 10 µM | HT-29 > 10 µM
